Assay results from patent US20230017786A1, “DEXTR[…] A DISEASE-MODIFYING TREATMENT FOR NEUROPSYCHIATRIC DISORDERS AND DISEASES” (priority 2020, published 2023).
Structures can show the parent of a compound that is named as a salt.

Legend:
[1] = target: T1, human NMDA receptor GluN1-GluN2A (Homo sapiens, UniProt Q05586+Q12879); assay: FLIPR calcium assay, test item effect on L-glutamate CRC, GluN1-GluN2A-CHO; type: cell-based
T1 construct: expressed in transfected cells; host or cells: CHO
Procedure: (§1) FLIPR determination of intracellular calcium level was used as a read-out for NMDAR activation.
(§2) 400× compound plate was stored at −20° C. until FLIPR experimental day.
(§3) 4× compound plate was generated from 400× compound plate by addition of up to 30 μl/well of compound buffer on FLIPR experimental day.
(§4) A FLIPR system was used to monitor intracellular calcium level in NMDAR cell lines, pre-loaded for 1 hour with Fluo-4, and then washed with assay buffer.
(§5) Y=Bottom+(Top−Bottom)/(1+10^((LogEC50−Log[A])*HillSlope))

[2] = target: T2, human NMDA receptor GluN1-GluN2B (Homo sapiens, UniProt Q05586+Q13224); assay: cell-based; type: cell-based
T2 construct: expressed in transfected cells; host or cells: CHO
Procedure: as §1, §2, §3, §4, §5

[3] = target: T3, human NMDA receptor GluN1-GluN2C (Homo sapiens, UniProt Q05586+Q14957); assay: FLIPR calcium assay, test item effect on L-glutamate CRC, GluN1-GluN2C-CHO; type: cell-based
T3 construct: expressed in transfected cells; host or cells: CHO
Procedure: as §1, §2, §3, §4, §5

[4] = target: T4, human NMDA receptor GluN1-GluN2D (Homo sapiens, UniProt O15399+Q05586); assay: FLIPR calcium assay, test item effect on L-glutamate CRC, GluN1-GluN2D-CHO; type: cell-based
T4 construct: expressed in transfected cells; host or cells: CHO
Procedure: as §1, §2, §3, §4, §5

[5] = tested on: diheteromeric human recombinant NMDAR containing GluN1 plus GluN2A, GluN2B, GluN2C or GluN2D; assay: FLIPR calcium assay, statements for all four NMDAR subtypes together; type: cell-based; conditions: 6 test item concentrations
Source text: An operational equation for allosteric modulators (Leach K, Sexton P M and Christopoulos A, Allosteric GPCR modulators: taking advantage of permissive receptor pharmacology, Trends Pharmacol. Sci. 28: 382-389, 2007; Kenakin T P, Overview of receptor interaction of agonists and antagonists, Curr. Protoc. Pharmacol. Chapter 4: Unit 4.1, 2008, Kenakin T P, Biased signalling and allosteric machines: new vistas and challenges for drug discovery, Br. J. Pharmacol. 165: 1659-1669, 2012) was created in Prism 8 (GraphPad) software to estimate KB and a parameters for every test item, with the assumption that, as a pore blocker, every test item would be able to produce a compete blockade of agonist response, at sufficiently high concentration: […]

rat brain = conditions: 75 mg/kg; Hashimoto et al., 1996; cited from earlier work
[6] = highest affinity for a NMDAR subtype = 100%
[7] = operational analysis for allosteric modulators
[8] = operational analysis for allosteric modulators, read-out: KB (M), estimated test item equilibrium dissociation constant

T4 sequence (O15399 28-1336, other chains not shown): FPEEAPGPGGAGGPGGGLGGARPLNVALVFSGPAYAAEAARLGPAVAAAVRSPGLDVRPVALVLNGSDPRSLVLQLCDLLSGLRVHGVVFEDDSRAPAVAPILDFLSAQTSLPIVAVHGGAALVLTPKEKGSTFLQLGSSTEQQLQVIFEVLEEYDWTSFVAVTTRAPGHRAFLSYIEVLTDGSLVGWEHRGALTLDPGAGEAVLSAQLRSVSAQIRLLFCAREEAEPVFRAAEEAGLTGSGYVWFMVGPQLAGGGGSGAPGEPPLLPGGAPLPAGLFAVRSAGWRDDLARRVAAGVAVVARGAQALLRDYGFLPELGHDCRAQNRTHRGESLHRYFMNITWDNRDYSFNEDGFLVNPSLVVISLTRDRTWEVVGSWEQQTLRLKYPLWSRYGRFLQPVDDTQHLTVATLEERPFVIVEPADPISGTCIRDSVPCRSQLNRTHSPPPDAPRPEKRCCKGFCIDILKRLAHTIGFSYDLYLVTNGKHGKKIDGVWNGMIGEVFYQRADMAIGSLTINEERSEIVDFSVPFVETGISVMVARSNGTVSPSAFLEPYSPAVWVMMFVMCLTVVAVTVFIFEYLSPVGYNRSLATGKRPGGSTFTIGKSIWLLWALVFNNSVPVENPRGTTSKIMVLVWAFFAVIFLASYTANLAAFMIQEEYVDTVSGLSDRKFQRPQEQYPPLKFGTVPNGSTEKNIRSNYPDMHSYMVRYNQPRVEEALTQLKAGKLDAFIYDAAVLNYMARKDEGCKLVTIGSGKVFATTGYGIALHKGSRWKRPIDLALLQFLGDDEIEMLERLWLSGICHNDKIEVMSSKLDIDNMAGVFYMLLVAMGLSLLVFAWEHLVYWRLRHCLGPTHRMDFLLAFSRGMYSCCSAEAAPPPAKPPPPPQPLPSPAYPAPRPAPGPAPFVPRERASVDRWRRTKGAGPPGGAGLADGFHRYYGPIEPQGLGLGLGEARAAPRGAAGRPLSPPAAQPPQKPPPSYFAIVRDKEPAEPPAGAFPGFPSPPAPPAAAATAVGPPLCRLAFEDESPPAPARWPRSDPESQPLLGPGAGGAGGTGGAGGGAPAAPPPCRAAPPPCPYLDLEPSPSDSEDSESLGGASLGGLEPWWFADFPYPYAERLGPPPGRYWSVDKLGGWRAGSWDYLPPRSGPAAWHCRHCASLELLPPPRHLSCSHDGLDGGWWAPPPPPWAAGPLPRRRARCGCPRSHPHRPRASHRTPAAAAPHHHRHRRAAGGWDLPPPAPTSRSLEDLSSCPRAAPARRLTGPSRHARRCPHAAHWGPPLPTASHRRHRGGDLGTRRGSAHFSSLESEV
T2 sequence (Q13224 27-1484, other chains not shown): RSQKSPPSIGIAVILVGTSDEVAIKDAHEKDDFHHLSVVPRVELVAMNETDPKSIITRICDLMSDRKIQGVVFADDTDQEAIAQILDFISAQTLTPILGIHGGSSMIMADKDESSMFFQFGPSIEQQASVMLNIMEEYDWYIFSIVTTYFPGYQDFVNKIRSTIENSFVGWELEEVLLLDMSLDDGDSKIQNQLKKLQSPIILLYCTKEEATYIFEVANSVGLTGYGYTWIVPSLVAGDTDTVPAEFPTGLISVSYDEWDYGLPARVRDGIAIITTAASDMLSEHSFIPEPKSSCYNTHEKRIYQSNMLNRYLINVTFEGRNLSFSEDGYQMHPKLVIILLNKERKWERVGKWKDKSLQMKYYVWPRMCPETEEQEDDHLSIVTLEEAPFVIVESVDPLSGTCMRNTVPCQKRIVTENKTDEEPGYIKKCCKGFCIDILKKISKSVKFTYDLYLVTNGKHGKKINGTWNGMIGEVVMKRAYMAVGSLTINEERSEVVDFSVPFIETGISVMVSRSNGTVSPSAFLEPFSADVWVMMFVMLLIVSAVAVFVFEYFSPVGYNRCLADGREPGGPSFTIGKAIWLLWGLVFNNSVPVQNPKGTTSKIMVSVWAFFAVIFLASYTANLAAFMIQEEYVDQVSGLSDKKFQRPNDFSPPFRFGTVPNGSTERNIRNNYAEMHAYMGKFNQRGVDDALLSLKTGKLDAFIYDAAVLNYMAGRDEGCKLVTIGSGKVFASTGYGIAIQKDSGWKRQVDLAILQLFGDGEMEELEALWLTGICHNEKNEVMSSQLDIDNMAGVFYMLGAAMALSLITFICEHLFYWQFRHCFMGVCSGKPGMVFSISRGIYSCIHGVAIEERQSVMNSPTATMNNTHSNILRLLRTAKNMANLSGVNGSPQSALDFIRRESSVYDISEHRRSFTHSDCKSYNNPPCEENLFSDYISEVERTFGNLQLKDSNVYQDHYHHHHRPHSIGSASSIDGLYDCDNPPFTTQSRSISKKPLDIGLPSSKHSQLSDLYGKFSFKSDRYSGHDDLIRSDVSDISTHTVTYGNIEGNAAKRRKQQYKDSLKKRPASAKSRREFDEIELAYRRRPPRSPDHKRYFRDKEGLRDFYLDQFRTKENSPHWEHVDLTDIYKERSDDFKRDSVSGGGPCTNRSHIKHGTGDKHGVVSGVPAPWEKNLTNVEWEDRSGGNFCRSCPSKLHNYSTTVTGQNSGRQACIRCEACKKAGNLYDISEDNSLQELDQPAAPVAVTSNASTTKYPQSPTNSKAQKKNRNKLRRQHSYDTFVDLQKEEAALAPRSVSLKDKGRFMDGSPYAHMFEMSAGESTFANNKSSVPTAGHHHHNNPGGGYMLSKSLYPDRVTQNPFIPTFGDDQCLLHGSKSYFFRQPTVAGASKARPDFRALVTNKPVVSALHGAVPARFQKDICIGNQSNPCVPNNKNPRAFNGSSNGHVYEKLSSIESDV
T3 sequence (Q14957 20-1233, other chains not shown): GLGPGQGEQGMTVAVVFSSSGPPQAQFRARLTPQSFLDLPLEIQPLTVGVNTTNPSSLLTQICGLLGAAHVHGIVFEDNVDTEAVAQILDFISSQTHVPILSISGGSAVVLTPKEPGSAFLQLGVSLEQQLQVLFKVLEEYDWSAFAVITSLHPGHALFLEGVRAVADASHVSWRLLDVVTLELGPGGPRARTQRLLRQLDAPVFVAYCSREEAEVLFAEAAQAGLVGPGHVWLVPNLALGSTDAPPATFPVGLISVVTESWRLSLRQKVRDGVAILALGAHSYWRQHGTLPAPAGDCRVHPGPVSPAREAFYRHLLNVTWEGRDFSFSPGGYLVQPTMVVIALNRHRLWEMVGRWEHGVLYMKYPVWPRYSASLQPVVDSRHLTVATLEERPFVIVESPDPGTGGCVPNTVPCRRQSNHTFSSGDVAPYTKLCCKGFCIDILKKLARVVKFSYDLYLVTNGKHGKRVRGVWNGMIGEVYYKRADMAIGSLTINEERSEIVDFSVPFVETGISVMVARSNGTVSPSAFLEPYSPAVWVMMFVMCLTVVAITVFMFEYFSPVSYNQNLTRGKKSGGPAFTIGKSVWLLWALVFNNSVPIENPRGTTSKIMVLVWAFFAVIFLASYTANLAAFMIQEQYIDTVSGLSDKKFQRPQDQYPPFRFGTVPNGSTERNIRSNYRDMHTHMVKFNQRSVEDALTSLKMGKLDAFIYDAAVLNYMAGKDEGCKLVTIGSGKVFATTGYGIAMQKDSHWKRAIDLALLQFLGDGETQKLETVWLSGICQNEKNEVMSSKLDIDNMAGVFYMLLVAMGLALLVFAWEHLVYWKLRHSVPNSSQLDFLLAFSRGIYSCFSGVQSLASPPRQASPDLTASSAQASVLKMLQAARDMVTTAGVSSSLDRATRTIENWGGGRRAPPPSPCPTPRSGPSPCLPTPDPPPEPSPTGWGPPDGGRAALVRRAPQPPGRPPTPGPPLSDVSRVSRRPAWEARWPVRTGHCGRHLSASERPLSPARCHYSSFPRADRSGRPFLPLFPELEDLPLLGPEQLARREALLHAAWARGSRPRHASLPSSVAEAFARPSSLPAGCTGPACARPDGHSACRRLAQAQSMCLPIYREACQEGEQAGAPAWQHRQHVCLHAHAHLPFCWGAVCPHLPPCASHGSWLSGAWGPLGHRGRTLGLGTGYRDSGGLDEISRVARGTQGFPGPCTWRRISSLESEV

In the case of `COc1ccc2c(c1)[C@]13CCCC[C@@H]1[C@H](C2)N(C)CC3` [Dextromethorphan, dextromethorphan hydrobromide monohydrate], the “% affinity ratio” value [1, 6] is reported as 13%, the “α, estimated cooperativity term” value [1, 7] is reported as 0.25 and the Kb [1, 8] is reported as 9.6e-06 M. The “L-glutamate CRC HillSlope” value ([1]; with test item 49 nM) was 1.0, the “L-glutamate CRC LogEC50” value ([1]; with test item 49 nM) was −6.6 and the “L-glutamate CRC HillSlope” value ([1]; with test item 195 nM) was 1.2. The “L-glutamate CRC LogEC50” value ([1]; with test item 195 nM) was −6.6, the “L-glutamate CRC HillSlope” value ([1]; with test item 781 nM) was 1.3 and the “L-glutamate CRC LogEC50” value ([1]; with test item 781 nM) was −6.4. The “L-glutamate CRC HillSlope” value ([1]; with test item 3.1 μM) was 1.3, the “L-glutamate CRC LogEC50” value ([1]; with test item 3.1 μM) was −6.5 and the “L-glutamate CRC HillSlope” value ([1]; with test item 12.5 μM) was 1.1. For the same molecule, the “L-glutamate CRC LogEC50” value ([1]; with test item 12.5 μM) was −6.4, the “L-glutamate CRC HillSlope” value ([1]; with test item 50 μM) was 1.3 and the “L-glutamate CRC LogEC50” value ([1]; with test item 50 μM) was −6.2. For the same molecule, the “% affinity ratio” value [2, 6] was 63%, the “α, estimated cooperativity term” value [2, 7] was 0.13 and the Kb [2, 8] was 1.9e-06 M. The “L-glutamate CRC HillSlope” value ([2]; with test item 49 nM) was 1.2, the “L-glutamate CRC LogEC50” value ([2]; with test item 49 nM) was −6.7 and the “L-glutamate CRC HillSlope” value ([2]; with test item 195 nM) was 1.1. The “L-glutamate CRC LogEC50” value ([2]; with test item 195 nM) was −6.7, the “L-glutamate CRC HillSlope” value ([2]; with test item 781 nM) was 1.3 and the “L-glutamate CRC LogEC50” value ([2]; with test item 781 nM) was −6.6. For the same molecule, the “L-glutamate CRC HillSlope” value ([2]; with test item 3.1 μM) was 1.3, the “L-glutamate CRC LogEC50” value ([2]; with test item 3.1 μM) was −6.7 and the “L-glutamate CRC HillSlope” value ([2]; with test item 12.5 μM) was 1.2. The “L-glutamate CRC LogEC50” value ([2]; with test item 12.5 μM) was −6.7, the “L-glutamate CRC HillSlope” value ([2]; with test item 50 μM) was 0.83 and the “L-glutamate CRC LogEC50” value ([2]; with test item 50 μM) was −6.2. The “% affinity ratio” value [3, 6] was 100%, the “α, estimated cooperativity term” value [3, 7] was 0.24 and the Kb [3, 8] was 1.2e-06 M. The “L-glutamate CRC HillSlope” value ([3]; with test item 49 nM) was 1.3, the “L-glutamate CRC LogEC50” value ([3]; with test item 49 nM) was −7.0 and the “L-glutamate CRC HillSlope” value ([3]; with test item 195 nM) was 1.4. For the same molecule, the “L-glutamate CRC LogEC50” value ([3]; with test item 195 nM) was −6.8, the “L-glutamate CRC HillSlope” value ([3]; with test item 781 nM) was 1.6 and the “L-glutamate CRC LogEC50” value ([3]; with test item 781 nM) was −6.8. The “L-glutamate CRC HillSlope” value ([3]; with test item 3.1 μM) was 1.6, the “L-glutamate CRC LogEC50” value ([3]; with test item 3.1 μM) was −6.7 and the “L-glutamate CRC HillSlope” value ([3]; with test item 12.5 μM) was 1.5. For the same molecule, the “L-glutamate CRC LogEC50” value ([3]; with test item 12.5 μM) was −6.7, the “L-glutamate CRC HillSlope” value ([3]; with test item 50 μM) was 3.0 and the “L-glutamate CRC LogEC50” value ([3]; with test item 50 μM) was −6.8. For the same molecule, the Kb ([4]; KB Table, absence of extracellular Mg2+, read-out: KB) was 6.7 µM, the “% affinity ratio” value [4, 6] was 18% and the “α, estimated cooperativity term” value [4, 7] was 0.34. The “L-glutamate CRC HillSlope” value ([4]; with test item 49 nM) was 1.7, the “L-glutamate CRC LogEC50” value ([4]; with test item 49 nM) was −7.5 and the “L-glutamate CRC HillSlope” value ([4]; with test item 195 nM) was 1.4. For the same molecule, the “L-glutamate CRC LogEC50” value ([4]; with test item 195 nM) was −7.5, the “L-glutamate CRC HillSlope” value ([4]; with test item 781 nM) was 1.7 and the “L-glutamate CRC LogEC50” value ([4]; with test item 781 nM) was −7.4. For the same molecule, the “L-glutamate CRC HillSlope” value ([4]; with test item 3.1 μM) was 1.9, the “L-glutamate CRC LogEC50” value ([4]; with test item 3.1 μM) was −7.3 and the “L-glutamate CRC HillSlope” value ([4]; with test item 12.5 μM) was 1.7. For the same molecule, the “L-glutamate CRC LogEC50” value ([4]; with test item 12.5 μM) was −7.1, the “L-glutamate CRC HillSlope” value ([4]; with test item 50 μM) was 1.9 and the “L-glutamate CRC LogEC50” value ([4]; with test item 50 μM) was −6.8. For the same molecule, the “profile on L-glutamate CRC” value [5] was “insurmountable profile” and the “vacuolization in rats' brains” value (rat brain) was “cause vacuolization”.
